Experimental data taken from ChEMBL document CHEMBL1201862, “PubChem BioAssay data set” (2004).
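Compound exposure: 48 hours, 5 concentrations, 96-well plates. GI50 = concentration required for 50% inhibition of growth.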 Active and inactive are the calls of the source. Rule as the data show it: active = GI50 up to about 1.1 µM and inactive = higher.

How the values were obtained:
Assay in all cases: NCI tumour cell line growth inhibition, 48 h
786-0 = test system: 786-0
HL-60 = test system: HL-60
Hs-578T = test system: Hs-578T
LOX IMVI = test system: LOX IMVI
NCI-H226 = test system: NCI-H226
NCI-H522 = test system: NCI-H522
SNB-19 = test system: SNB-19
Malme-3M = test system: Malme-3M
KM12 = test system: KM12
CCRF-CEM = test system: CCRF-CEM
A498 = test system: A498
NCI-H23 = test system: NCI-H23
SF-295 = test system: SF-295
IGROV-1 = test system: IGROV-1
HOP-62 = test system: HOP-62
SF-268 = test system: SF-268
HCT-116 = test system: HCT-116
A549 = test system: A549
M14 = test system: M14

| SMILES | GI50 (786-0) | GI50 (HL-60) | GI50 (Hs-578T) | GI50 (LOX IMVI) | GI50 (NCI-H226) | GI50 (NCI-H522) | GI50 (SNB-19) | GI50 (Malme-3M) | GI50 (KM12) | GI50 (CCRF-CEM) | GI50 (A498) | GI50 (NCI-H23) | GI50 (SF-295) | GI50 (IGROV-1) | GI50 (HOP-62) | GI50 (SF-268) | GI50 (HCT-116) | GI50 (A549) | GI50 (M14) |
| --- | --- | --- | --- | --- | --- | --- | --- | --- | --- | --- | --- | --- | --- | --- | --- | --- | --- | --- | --- |
| COc1cc2c(cc1OC)C(CCN)=NCC2 | 5.08 µM (inactive) | 0.839 µM (active) | 27.7 µM (inactive) | 18.8 µM (inactive) | > 46.1 µM (inactive) | 3.82 µM (inactive) | 41.4 µM (inactive) | 18.8 µM (inactive) | 19 µM (inactive) | 2.19 µM (inactive) | 26.9 µM (inactive) | 13.1 µM (inactive) | > 100 µM (inactive) | 22.6 µM (inactive) | 21.1 µM (inactive) | 19.5 µM (inactive) | 18.4 µM (inactive) | 31.6 µM (inactive) | 17.2 µM (inactive) |
| COc1cc2c(c(O)c1OC)C(=O)[C@@H]1CCC(=O)N1C2 | > 100 µM (inactive) | > 100 µM (inactive) | > 100 µM (inactive) | > 100 µM (inactive) | > 100 µM (inactive) | > 100 µM (inactive) | > 100 µM (inactive) | > 100 µM (inactive) | > 100 µM (inactive) | > 100 µM (inactive) | > 100 µM (inactive) | > 100 µM (inactive) | > 100 µM (inactive) | > 100 µM (inactive) | > 100 µM (inactive) | > 100 µM (inactive) | > 100 µM (inactive) | > 100 µM (inactive) | > 100 µM (inactive) |
| Cc1ccc(S(=O)(=O)N2CCSCCSCCSCCSCC2)cc1 | 21.1 µM (inactive) | 99.8 µM (inactive) | > 23.3 µM (inactive) | 59.6 µM (inactive) | > 49.9 µM (inactive) | 33.6 µM (inactive) | 24.8 µM (inactive) | > 72.8 µM (inactive) | > 100 µM (inactive) | 64.3 µM (inactive) | > 44.2 µM (inactive) | 40.1 µM (inactive) | 22.6 µM (inactive) | 48.4 µM (inactive) | > 40.6 µM (inactive) | 34.5 µM (inactive) | 40 µM (inactive) | 61.1 µM (inactive) | 61.4 µM (inactive) |
| CC1OC(OC2C(O[C@H]3CC[C@@H]4C(=CC[C@@H]5[C@@]4(C)C(=O)C[C@]4(C)[C@@H]([C@H](C)CC[C@@H](O)C(C)(C)O)CC[C@@]54C)C3(C)C)OC(CO)C(O)C2O)C(O)C(O)C1O (stereo not given in full) | > 100 µM (inactive) | > 100 µM (inactive) | > 100 µM (inactive) | > 100 µM (inactive) | > 100 µM (inactive) | > 100 µM (inactive) | > 100 µM (inactive) | > 100 µM (inactive) | > 100 µM (inactive) | 79.3 µM (inactive) | > 100 µM (inactive) | > 100 µM (inactive) | > 100 µM (inactive) | 75.5 µM (inactive) | > 100 µM (inactive) | > 100 µM (inactive) | > 100 µM (inactive) | > 100 µM (inactive) | > 100 µM (inactive) |
| COC(=O)/C=C\C(C#N)(C#N)/N=C/c1ccc(OC)cc1 | 1.99 µM (inactive) | 1.45 µM (inactive) | 10 µM (inactive) | 3.12 µM (inactive) | 10.8 µM (inactive) | 0.615 µM (active) | > 44.7 µM (inactive) | 1.73 µM (inactive) | 16.7 µM (inactive) | 0.162 µM (active) | 18.5 µM (inactive) | 8.95 µM (inactive) | 25.1 µM (inactive) | 15 µM (inactive) | 17.7 µM (inactive) | 4.94 µM (inactive) | 1.84 µM (inactive) | 19.5 µM (inactive) | 3.08 µM (inactive) |
